Values joined by “and” are separate entries in the source; they are usually repeats but may differ in a detail not shown here. Equal entries are not always repeated. Toxic doses and inconclusive results are not listed.
Tested on: BDF1 mice, P388 leukemia ip, median survival T/C
Experiment: NCI In Vivo Anticancer Drug Screen. Data for tumor model P388 Leukemia (intraperitoneal) in B6D2F1 (BDF1) mice
Conditions: endpoint: median survival time, higher = longer survival
In short: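 Survival ratio, drug arm over vehicle arm, in mice with a transplanted tumour.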

[1] = dose: 200.0 mg/kg/injection, schedule: Q04DX003 (ip), vehicle: saline
[2] = dose: 100.0 mg/kg/injection, schedule: Q01DX009 (ip), vehicle: saline with Tween-80
[3] = dose: 100.0 mg/kg/injection, schedule: Q01DX009 (ip), vehicle: saline
[4] = dose: 200.0 mg/kg/injection, schedule: Q01DX009 (ip), vehicle: saline with Tween-80

In the case of `CC(=O)OC1CCC(C(C)(C)C)CC1` (stereo unspecified), the T/C (dose: 50.0 mg/kg/injection, schedule: Q04DX003 (ip), vehicle: saline) is reported as 95 % of control, the T/C (dose: 100.0 mg/kg/injection, schedule: Q04DX003 (ip), vehicle: saline) is reported as 109 % of control and the T/C [1] is reported as 109 % of control.

With `CC(=O)c1ccc[n+](Cc2c(Cl)cccc2Cl)c1` the T/C (dose: 3.13 mg/kg/injection, schedule: Q01DX009 (ip), vehicle: saline) was 93 % of control, the T/C (dose: 6.25 mg/kg/injection, schedule: Q01DX009 (ip), vehicle: saline) was 92 % of control and the T/C (dose: 12.5 mg/kg/injection, schedule: Q01DX009 (ip), vehicle: saline) was 92 % of control.

In the case of `CCOC(=O)CCC(NC(=O)c1cc(Cl)c(N(C)S(=O)(=O)c2ccc(C)cc2)cc1Cl)C(=O)OCC` (stereo unspecified), the T/C (dose: 25.0 mg/kg/injection, schedule: Q01DX001 (ip), vehicle: saline sonified) is reported as 109 % of control, the T/C (dose: 50.0 mg/kg/injection, schedule: Q01DX001 (ip), vehicle: saline sonified) is reported as 104 % of control and the T/C (dose: 100.0 mg/kg/injection, schedule: Q01DX001 (ip), vehicle: saline sonified) is reported as 104 % of control.

With `O.O.O.O.O=C([OH2+])CN=Cc1ccccc1O.O=C([OH2+])CN=Cc1ccccc1O.[Ni].[Ni]` the T/C (dose: 4.0 mg/kg/injection, schedule: Q01DX009 (ip), vehicle: saline with Tween-80) was 100 % of control, the T/C (dose: 6.25 mg/kg/injection, schedule: Q04DX003 (ip), vehicle: saline with Tween-80) was 113 % of control and the T/C (dose: 8.0 mg/kg/injection, schedule: Q01DX009 (ip), vehicle: saline with Tween-80) was 115 % of control.

For `COC1CCC(C)(C=O)C(C#N)(C#N)C1(C#N)C#N` (stereo unspecified), the T/C (dose: 12.5 mg/kg/injection, schedule: Q01DX001 (ip), vehicle: saline with Tween-80) was 98 % of control, the T/C (dose: 25.0 mg/kg/injection, schedule: Q01DX001 (ip), vehicle: saline with Tween-80) was 114 % of control and the T/C (dose: 50.0 mg/kg/injection, schedule: Q01DX001 (ip), vehicle: saline with Tween-80) was 109 % of control.

`CCOC(=N)c1cn(C2OC(CO)C(O)C2O)c2ncnc(N)c12` (stereo unspecified) was tested, and the T/C (dose: 0.12 mg/kg/injection, schedule: Q01DX009 (ip), vehicle: saline with Tween-80) was 168 % of control, the T/C (dose: 0.22 mg/kg/injection, schedule: Q01DX009 (ip), vehicle: saline) was 174 % of control and the T/C (dose: 0.25 mg/kg/injection, schedule: Q01DX009 (ip), vehicle: saline with Tween-80) was 195 % of control. The T/C (dose: 0.33 mg/kg/injection, schedule: Q01DX009 (ip), vehicle: saline) was 196 % of control, the T/C (dose: 0.5 mg/kg/injection, schedule: Q01DX009 (ip), vehicle: saline with Tween-80) was 163 % of control and the T/C (dose: 0.5 mg/kg/injection, schedule: Q01DX009 (ip), vehicle: saline) was 186 % of control. The T/C (dose: 0.5 mg/kg/injection, schedule: Q04DX003 (ip), vehicle: saline with Tween-80) was 150 % of control, the T/C (dose: 0.75 mg/kg/injection, schedule: Q01DX009 (ip), vehicle: saline) was 196 % of control and the T/C (dose: 0.8 mg/kg/injection, schedule: Q04DX003 (ip), vehicle: saline with Tween-80) was 190 % of control. For the same compound, the T/C (dose: 1.2 mg/kg/injection, schedule: Q04DX003 (ip), vehicle: saline with Tween-80) was 272 % of control, the T/C (dose: 1.8 mg/kg/injection, schedule: Q04DX003 (ip), vehicle: saline with Tween-80) was 190 % of control and 209 % of control and the T/C (dose: 2.6 mg/kg/injection, schedule: Q04DX003 (ip), vehicle: saline with Tween-80) was 200 % of control. For the same compound, the T/C (dose: 6.0 mg/kg/injection, schedule: Q04DX003 (ip), vehicle: saline with Tween-80) was 90 % of control, the T/C (dose: 5.3 micrograms/kg/injection, schedule: Q01DX009 (ip), vehicle: saline) was 106 % of control and the T/C (dose: 8.0 micrograms/kg/injection, schedule: Q01DX009 (ip), vehicle: saline) was 115 % of control. The T/C (dose: 15.0 micrograms/kg/injection, schedule: Q01DX009 (ip), vehicle: saline with Tween-80) was 120 % of control, the T/C (dose: 27.0 micrograms/kg/injection, schedule: Q01DX009 (ip), vehicle: saline) was 152 % of control and the T/C (dose: 40.0 micrograms/kg/injection, schedule: Q01DX009 (ip), vehicle: saline) was 159 % of control. The T/C (dose: 60.0 micrograms/kg/injection, schedule: Q01DX009 (ip), vehicle: saline) was 169 % of control, the T/C (dose: 66.0 micrograms/kg/injection, schedule: Q01DX009 (ip), vehicle: saline) was 155 % of control and the T/C (dose: 100.0 micrograms/kg/injection, schedule: Q01DX009 (ip), vehicle: saline) was 154 % of control.

With `OC(CI)C(O)C(O)C(O)CI` (stereo unspecified) the T/C [2] was 108 % of control, the T/C [3] was 102 % of control and the T/C [4] was 102 % of control. For the same compound, the T/C (dose: 200.0 mg/kg/injection, schedule: Q01DX009 (ip), vehicle: saline) was 109 % of control, the T/C (dose: 300.0 mg/kg/injection, schedule: Q01DX009 (ip), vehicle: saline with Tween-80) was 150 % of control and the T/C (dose: 400.0 mg/kg/injection, schedule: Q01DX009 (ip), vehicle: saline with Tween-80) was 122 % of control. The T/C (dose: 400.0 mg/kg/injection, schedule: Q01DX009 (ip), vehicle: saline) was 109 % of control and the T/C (dose: 600.0 mg/kg/injection, schedule: Q01DX009 (ip), vehicle: saline) was 118 % of control.

`COc1cc2c(cc1OC)C1CCc3cc(OC)c(OC)cc3C1N=C2` (stereo unspecified) was tested, and the T/C (dose: 20.0 mg/kg/injection, schedule: Q01DX009 (ip), vehicle: saline) was 95 % of control, the T/C (dose: 40.0 mg/kg/injection, schedule: Q01DX009 (ip), vehicle: saline) was 95 % of control and the T/C (dose: 80.0 mg/kg/injection, schedule: Q01DX009 (ip), vehicle: saline) was 100 % of control. For the same compound, the T/C (dose: 120.0 mg/kg/injection, schedule: Q01DX009 (ip), vehicle: saline) was 100 % of control and the T/C (dose: 240.0 mg/kg/injection, schedule: Q01DX009 (ip), vehicle: saline) was 95 % of control.

In the case of `S=C1NC(c2ccccc2)NC(c2ccccc2)S1` (stereo unspecified), the T/C (dose: 100.0 mg/kg/injection, schedule: Q01DX001 (ip), vehicle: Klucel (hydroxypropylcellulose) (HPC)) is reported as 95 % of control, the T/C (dose: 100.0 mg/kg/injection, schedule: Q01DX009 (ip), vehicle: Klucel (hydroxypropylcellulose) (HPC)) is reported as 111 % of control and the T/C (dose: 100.0 mg/kg/injection, schedule: Q04DX003 (ip), vehicle: Klucel (hydroxypropylcellulose) (HPC)) is reported as 91 % of control and 100 % of control. The T/C (dose: 200.0 mg/kg/injection, schedule: Q01DX001 (ip), vehicle: Klucel (hydroxypropylcellulose) (HPC)) was 95 % of control, the T/C (dose: 200.0 mg/kg/injection, schedule: Q01DX009 (ip), vehicle: Klucel (hydroxypropylcellulose) (HPC)) was 111 % of control and the T/C (dose: 200.0 mg/kg/injection, schedule: Q04DX003 (ip), vehicle: Klucel (hydroxypropylcellulose) (HPC)) was 91 % of control and 108 % of control. For the same compound, the T/C (dose: 400.0 mg/kg/injection, schedule: Q01DX009 (ip), vehicle: Klucel (hydroxypropylcellulose) (HPC)) was 111 % of control and the T/C (dose: 400.0 mg/kg/injection, schedule: Q04DX003 (ip), vehicle: Klucel (hydroxypropylcellulose) (HPC)) was 87 % of control and 108 % of control.

`CCOC(=O)C1=C(C)NC(C)=C(C(=O)OCC)C1c1ccccc1Cl` was tested, and the T/C (dose: 28.75 mg/kg/injection, schedule: Q04DX003 (ip), vehicle: Klucel (hydroxypropylcellulose) (HPC)) was 95 % of control, the T/C (dose: 57.5 mg/kg/injection, schedule: Q04DX003 (ip), vehicle: Klucel (hydroxypropylcellulose) (HPC)) was 104 % of control and the T/C (dose: 75.0 mg/kg/injection, schedule: Q01DX009 (ip), vehicle: Klucel (hydroxypropylcellulose) (HPC)) was 90 % of control. For the same compound, the T/C (dose: 115.0 mg/kg/injection, schedule: Q01DX009 (ip), vehicle: Klucel (hydroxypropylcellulose) (HPC)) was 86 % of control, the T/C (dose: 115.0 mg/kg/injection, schedule: Q04DX003 (ip), vehicle: Klucel (hydroxypropylcellulose) (HPC)) was 100 % of control and the T/C (dose: 170.0 mg/kg/injection, schedule: Q01DX001 (ip), vehicle: Klucel (hydroxypropylcellulose) (HPC)) was 100 % of control. The T/C (dose: 260.0 mg/kg/injection, schedule: Q01DX001 (ip), vehicle: Klucel (hydroxypropylcellulose) (HPC)) was 100 % of control.

For `CCN(CCNc1ccc(C)c2sc3ccccc3c(=O)c12)CC(C)(C)O`, the T/C (dose: 35.0 mg/kg/injection, schedule: Q01DX009 (ip), vehicle: saline) was 108 % of control, the T/C (dose: 44.0 mg/kg/injection, schedule: Q04DX003 (ip), vehicle: saline) was 105 % of control and the T/C (dose: 66.0 mg/kg/injection, schedule: Q04DX003 (ip), vehicle: saline) was 120 % of control. For the same compound, the T/C [3] was 159 % of control, the T/C (dose: 132.0 mg/kg/injection, schedule: Q04DX003 (ip), vehicle: saline) was 160 % of control and the T/C [1] was 185 % of control. For the same compound, the T/C (dose: 225.0 mg/kg/injection, schedule: Q01DX009 (ip), vehicle: saline) was 90 % of control.

In the case of `c1nc(SC2CCCC2)c2[nH]cnc2n1`, the T/C [2] is reported as 100 % of control and the T/C [4] is reported as 116 % of control.

For `C=C(Cl)COC1CCS(=O)(=O)C1` (stereo unspecified), the T/C (dose: 6.25 mg/kg/injection, schedule: Q01DX009 (ip), vehicle: saline with Tween-80) was 90 % of control, the T/C (dose: 12.5 mg/kg/injection, schedule: Q01DX009 (ip), vehicle: saline with Tween-80) was 90 % of control and the T/C (dose: 25.0 mg/kg/injection, schedule: Q01DX009 (ip), vehicle: saline with Tween-80) was 93 % of control.

— PubChem BioAssay AID328 (DTP/NCI, 2004)
